Test results as given in ChEMBL document CHEMBL4622931, “Potent dual EGFR/Her4 tyrosine kinase inhibitors containing novel (1,2-dithiolan-4-yl)acetamides” (Bioorg Med Chem Lett, 2020).
Activity calls are given as the source filed them. The calls are words filed in the database; no cut-off is given here.

Legend:
[1] = target: T1, Epidermal growth factor receptor (Homo sapiens, UniProt P00533); test: Inhibition of wild type EGFR (unknown origin) in presence of radiolabelled gammaATP by radioisotope filter binding assay
T1 sequence (P00533 whole entry): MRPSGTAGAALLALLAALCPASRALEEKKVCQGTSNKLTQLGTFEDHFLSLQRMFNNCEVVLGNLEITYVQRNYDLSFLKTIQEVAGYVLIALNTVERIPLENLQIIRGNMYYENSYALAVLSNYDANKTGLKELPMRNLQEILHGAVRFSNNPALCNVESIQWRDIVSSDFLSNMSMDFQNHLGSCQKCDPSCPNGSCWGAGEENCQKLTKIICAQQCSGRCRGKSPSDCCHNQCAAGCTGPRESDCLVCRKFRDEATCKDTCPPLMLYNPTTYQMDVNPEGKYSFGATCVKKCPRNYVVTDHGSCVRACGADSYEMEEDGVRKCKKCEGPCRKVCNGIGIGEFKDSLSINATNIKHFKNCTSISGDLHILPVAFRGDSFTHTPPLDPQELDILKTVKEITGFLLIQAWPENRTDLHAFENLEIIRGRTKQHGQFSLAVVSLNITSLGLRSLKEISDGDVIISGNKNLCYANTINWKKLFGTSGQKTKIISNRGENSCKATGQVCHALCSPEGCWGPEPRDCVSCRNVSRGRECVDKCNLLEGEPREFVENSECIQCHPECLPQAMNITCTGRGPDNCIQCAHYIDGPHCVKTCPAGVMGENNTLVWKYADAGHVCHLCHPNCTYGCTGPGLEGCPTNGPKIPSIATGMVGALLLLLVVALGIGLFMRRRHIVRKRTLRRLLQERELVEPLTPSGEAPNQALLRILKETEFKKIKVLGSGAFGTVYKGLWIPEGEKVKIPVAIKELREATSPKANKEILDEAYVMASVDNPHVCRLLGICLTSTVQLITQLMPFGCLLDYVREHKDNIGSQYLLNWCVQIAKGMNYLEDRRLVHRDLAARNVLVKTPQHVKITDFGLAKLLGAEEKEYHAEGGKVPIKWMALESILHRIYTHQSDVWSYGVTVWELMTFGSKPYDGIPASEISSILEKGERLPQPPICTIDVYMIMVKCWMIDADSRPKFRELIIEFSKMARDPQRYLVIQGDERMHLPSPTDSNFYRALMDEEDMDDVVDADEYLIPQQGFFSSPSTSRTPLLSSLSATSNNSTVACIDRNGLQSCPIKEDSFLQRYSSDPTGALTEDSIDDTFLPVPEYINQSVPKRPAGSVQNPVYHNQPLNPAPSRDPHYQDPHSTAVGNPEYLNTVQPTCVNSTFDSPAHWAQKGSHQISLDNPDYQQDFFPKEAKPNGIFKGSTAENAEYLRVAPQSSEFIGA

[2] = target: T2, Receptor tyrosine-protein kinase erbB-4 (Homo sapiens, UniProt Q15303); test: Inhibition of HER4 (unknown origin) in presence of radiolabelled gammaATP by radioisotope filter binding assay
[3] = target: T3, Epidermal growth factor receptor (Homo sapiens, UniProt P00533, L858R); test: Inhibition of EGFR L858R mutant (unknown origin) in presence of radiolabelled gammaATP by radioisotope filter binding assay
T3 sequence (P00533 25-1210 L858R limits assumed): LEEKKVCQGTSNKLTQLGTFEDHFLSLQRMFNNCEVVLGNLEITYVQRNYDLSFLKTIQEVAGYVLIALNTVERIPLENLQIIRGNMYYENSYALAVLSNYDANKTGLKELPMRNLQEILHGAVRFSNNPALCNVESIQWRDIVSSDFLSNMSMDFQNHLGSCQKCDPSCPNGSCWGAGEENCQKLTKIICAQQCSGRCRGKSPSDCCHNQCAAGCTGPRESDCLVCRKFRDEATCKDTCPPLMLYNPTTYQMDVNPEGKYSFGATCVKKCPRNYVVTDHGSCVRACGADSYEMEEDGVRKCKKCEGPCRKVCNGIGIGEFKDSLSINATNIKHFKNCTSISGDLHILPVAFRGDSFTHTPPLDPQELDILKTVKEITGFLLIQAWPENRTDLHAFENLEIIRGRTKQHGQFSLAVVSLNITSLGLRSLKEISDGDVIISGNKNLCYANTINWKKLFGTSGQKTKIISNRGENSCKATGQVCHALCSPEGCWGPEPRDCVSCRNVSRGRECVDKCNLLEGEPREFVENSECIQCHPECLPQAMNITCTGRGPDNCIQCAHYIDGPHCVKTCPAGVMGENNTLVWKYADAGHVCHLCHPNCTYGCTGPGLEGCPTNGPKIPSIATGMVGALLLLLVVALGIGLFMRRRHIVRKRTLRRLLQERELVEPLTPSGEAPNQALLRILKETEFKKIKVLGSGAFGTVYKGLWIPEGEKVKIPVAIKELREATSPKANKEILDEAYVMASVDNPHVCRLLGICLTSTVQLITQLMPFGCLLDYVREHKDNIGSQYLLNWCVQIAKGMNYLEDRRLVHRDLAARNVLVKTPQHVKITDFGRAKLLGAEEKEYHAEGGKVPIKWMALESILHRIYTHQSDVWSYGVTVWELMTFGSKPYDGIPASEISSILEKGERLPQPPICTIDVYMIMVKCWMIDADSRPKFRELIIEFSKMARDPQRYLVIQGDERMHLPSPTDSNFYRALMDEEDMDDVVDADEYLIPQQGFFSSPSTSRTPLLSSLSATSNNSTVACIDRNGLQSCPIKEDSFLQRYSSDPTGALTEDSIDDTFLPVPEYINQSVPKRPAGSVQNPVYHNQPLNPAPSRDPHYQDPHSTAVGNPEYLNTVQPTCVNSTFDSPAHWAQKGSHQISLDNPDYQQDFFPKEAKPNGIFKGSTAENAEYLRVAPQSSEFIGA

[4] = target: Epidermal growth factor receptor (Homo sapiens, UniProt P00533, L858R/T790M); test: Inhibition of EGFR L858R/T790M mutant (unknown origin) in presence of radiolabelled gammaATP by radioisotope filter binding assay
[5] = target: Epidermal growth factor receptor (Homo sapiens, UniProt P00533, EX19DEL); test: Inhibition of EGFR ex19del mutant (unknown origin) in presence of radiolabelled gammaATP by radioisotope filter binding assay
Epidermal growth factor receptor (Homo sapiens, UniProt P00533, EX19DEL), sequence (P00533 whole entry, looked up, stated change not applied): as the sequence (P00533 whole entry) above

[6] = target: T4, Receptor tyrosine-protein kinase erbB-2 (Homo sapiens, UniProt P04626); test: Inhibition of HER2 (unknown origin) in presence of radiolabelled gammaATP by radioisotope filter binding assay
T4 sequence (P04626 whole entry, the tested form may be a part): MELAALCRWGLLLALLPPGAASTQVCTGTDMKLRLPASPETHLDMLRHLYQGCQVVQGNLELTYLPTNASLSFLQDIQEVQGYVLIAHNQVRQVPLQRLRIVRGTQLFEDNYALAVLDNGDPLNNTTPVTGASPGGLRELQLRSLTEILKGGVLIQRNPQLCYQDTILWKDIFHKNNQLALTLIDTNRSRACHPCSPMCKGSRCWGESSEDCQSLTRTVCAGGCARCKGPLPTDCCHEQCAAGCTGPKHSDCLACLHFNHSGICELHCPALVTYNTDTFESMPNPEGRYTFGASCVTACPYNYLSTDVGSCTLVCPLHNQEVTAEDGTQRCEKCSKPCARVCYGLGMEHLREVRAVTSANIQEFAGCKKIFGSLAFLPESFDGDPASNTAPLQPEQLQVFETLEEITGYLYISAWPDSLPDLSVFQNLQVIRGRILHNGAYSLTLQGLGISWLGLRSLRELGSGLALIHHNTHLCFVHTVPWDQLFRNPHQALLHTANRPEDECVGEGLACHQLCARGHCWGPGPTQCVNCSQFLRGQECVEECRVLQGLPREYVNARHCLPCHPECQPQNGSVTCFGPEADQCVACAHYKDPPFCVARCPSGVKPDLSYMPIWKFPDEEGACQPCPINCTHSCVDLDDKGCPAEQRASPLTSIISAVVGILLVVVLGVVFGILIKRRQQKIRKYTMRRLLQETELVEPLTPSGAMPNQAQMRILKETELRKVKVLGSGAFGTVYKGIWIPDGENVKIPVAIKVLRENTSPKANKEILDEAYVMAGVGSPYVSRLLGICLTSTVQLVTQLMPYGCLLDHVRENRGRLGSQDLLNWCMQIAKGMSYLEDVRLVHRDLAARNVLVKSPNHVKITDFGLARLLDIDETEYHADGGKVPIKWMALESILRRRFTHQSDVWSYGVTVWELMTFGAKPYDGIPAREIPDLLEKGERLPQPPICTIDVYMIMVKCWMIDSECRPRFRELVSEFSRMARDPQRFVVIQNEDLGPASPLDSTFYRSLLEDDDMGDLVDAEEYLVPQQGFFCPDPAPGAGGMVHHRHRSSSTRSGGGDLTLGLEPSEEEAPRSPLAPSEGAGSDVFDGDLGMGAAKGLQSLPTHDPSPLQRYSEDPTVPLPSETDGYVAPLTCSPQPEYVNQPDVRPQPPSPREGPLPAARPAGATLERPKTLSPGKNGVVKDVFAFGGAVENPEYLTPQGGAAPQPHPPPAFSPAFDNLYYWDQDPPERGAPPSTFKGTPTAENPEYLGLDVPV

[7] = target: T1, Epidermal growth factor receptor; test: Inhibition of recombinant human N-terminal GST-tagged EGFR (669 to 1210 residues) expressed in baculovirus expression system by competitive binding assay
[8] = target: T3, Epidermal growth factor receptor; test: Inhibition of recombinant human N-terminal GST-tagged EGFR L858R mutant (669 to 1210 residues) expressed in baculovirus expression system by competitive binding assay
[9] = target: T3, Epidermal growth factor receptor; test: Inhibition of recombinant human partial length EGFR L858R mutant (669 to 1011 residues) expressed in bacterial expression system by competitive binding assay
[10] = target: Receptor tyrosine-protein kinase erbB-3 (Homo sapiens, UniProt P21860); test: Inhibition of recombinant human wild type partial length HER3 (684 to 987 residues) expressed in mammalian expression system by competitive binding assay
[11] = target: T2, Receptor tyrosine-protein kinase erbB-4; test: Inhibition of recombinant human wild type partial length HER4 (690 to 994 residues) expressed in bacterial expression system by competitive binding assay
CCRF-CEM = test: Cytotoxicity against human CCRF-CEM cells assessed as growth inhibition incubated for 48 hrs by SRB assay; type: functional
K562 = test: Cytotoxicity against human K562 cells assessed as growth inhibition incubated for 48 hrs by SRB assay; type: functional; details: K562, 48 h
MOLT-4 [12] = test: Cytotoxicity against human MOLT4 cells assessed as growth inhibition incubated for 48 hrs by SRB assay; type: functional; details: MOLT-4, 48 h
SR = test: Cytotoxicity against human SR cells assessed as growth inhibition incubated for 48 hrs by SRB assay; type: functional
NCI-H460 [13] = test: Cytotoxicity against human NCI-H460 cells assessed as growth inhibition incubated for 48 hrs by SRB assay; type: functional; details: NCI-H460, 48 h
NCI-H226 = test: Cytotoxicity against human NCI-H226 cells assessed as growth inhibition incubated for 48 hrs by SRB assay; type: functional; details: NCI-H226, 48 h
MCF7 = test: Cytotoxicity against human MCF7 cells assessed as growth inhibition incubated for 48 hrs by SRB assay; type: functional; details: MCF7, 48 h
MDA-MB-231 = test: Cytotoxicity against human MDA-MB-231 cells assessed as growth inhibition incubated for 48 hrs by SRB assay; type: functional; details: MDA-MB-231, 48 h
MDA-MB-468 = test: Cytotoxicity against human MDA-MB-468 cells assessed as growth inhibition incubated for 48 hrs by SRB assay; type: functional; details: MDA-MB-468, 48 h
Hs-578T = test: Cytotoxicity against human Hs578T cells assessed as growth inhibition incubated for 48 hrs by SRB assay; type: functional
PC-3 = test: Cytotoxicity against human PC3 cells assessed as growth inhibition incubated for 48 hrs by SRB assay; type: functional; details: PC-3, 48 h
DU-145 = test: Cytotoxicity against human DU145 cells assessed as growth inhibition incubated for 48 hrs by SRB assay; type: functional; details: DU-145, 48 h
HCT-116 = test: Cytotoxicity against human HCT116 cells assessed as growth inhibition incubated for 48 hrs by SRB assay; type: functional; details: HCT-116, 48 h
M14 = test: Cytotoxicity against human M14 cells assessed as growth inhibition incubated for 48 hrs by SRB assay; type: functional; details: M14, 48 h
SK-MEL-28 = test: Cytotoxicity against human SK-MEL-28 cells assessed as growth inhibition incubated for 48 hrs by SRB assay; type: functional; details: SK-MEL-28, 48 h
SF-268 = test: Cytotoxicity against human SF268 cells assessed as growth inhibition incubated for 48 hrs by SRB assay; type: functional; details: SF-268, 48 h
MOLT-4 [14] = test: Antitumor activity against human MOLT4 cells loaded in hollow fibers implanted intraperitoneally in NMRI mouse assessed as reduction in cell viability at 10 mg/kg, ip administered for 14 days by celltiter glo assay; type: functional, organism-based
NCI-H460 [15] = test: Antitumor activity against human NCI-H460 cells loaded in hollow fibers implanted intraperitoneally in NMRI mouse assessed as reduction in cell viability at 10 mg/kg, ip administered for 14 days by celltiter glo assay; type: functional, organism-based
[16] = Toxicity in NMRI mouse xenografted with human MOLT4 cells assessed as toxic signs at 10 mg/kg, ip administered for 14 days and observed on day 14; type: organism-based, MOLT-4; details: in vivo, 336 h
[17] = Toxicity in NMRI mouse xenografted with human MOLT4 cells assessed as weight loss at 10 mg/kg, ip administered for 14 days and observed on day 14; type: organism-based, MOLT-4; details: in vivo, 336 h
[18] = Toxicity in NMRI mouse xenografted with human NCI-H460 cells assessed as toxic signs at 10 mg/kg, ip administered for 14 days and observed on day 14; type: organism-based; details: in vivo, 336 h
[19] = Toxicity in NMRI mouse xenografted with human NCI-H460 cells assessed as weight loss at 10 mg/kg, ip administered for 14 days and observed on day 14; type: organism-based; details: in vivo, 336 h
[20] = Toxicity in NMRI mouse xenografted with human HCT116 cells assessed as toxic signs at 10 mg/kg, ip administered for 14 days and observed on day 14; type: organism-based, HCT-116; details: in vivo, 336 h
[21] = Toxicity in NMRI mouse xenografted with human HCT116 cells assessed as weight loss at 10 mg/kg, ip administered for 14 days and observed on day 14; type: organism-based, HCT-116; details: in vivo, 336 h
[22] = target: T4, Receptor tyrosine-protein kinase erbB-2
Description: Inhibition of recombinant human N-terminal His-tagged HER2 (676 to 1255 residues) expressed in baculovirus expression system by competitive binding assay

[23] = target: T2, Receptor tyrosine-protein kinase erbB-4
Description: Inhibition of recombinant human N-terminal GST-tagged HER4 (676 to 1308 residues) expressed in baculovirus expression system by competitive binding assay

## N#Cc1cnc2cc(OC[C@@H](O)CO)c(NC(=O)C3CSSC3)cc2c1Nc1ccc(OCc2cccc(F)c2)c(Cl)c1
[1]
  IC50: 1.5 nM
[2]
  IC50: 0.45 nM
[3]
  IC50: 51 nM
[4]
  IC50: > 10000 nM
[5]
  IC50: 204 nM

## C=CC(=O)Nc1cc2c(Nc3ccc(F)c(Cl)c3)ccnc2cc1OCCC1CC12CCN(C)CC2 (configuration not stated)
[2]
  IC50: 1.2 nM

## N#Cc1cnc2cc(OC[C@@H](O)CO)c(NC(=O)CC3CSSC3)cc2c1Nc1ccc(OCc2cccc(F)c2)c(Cl)c1
[1]
  IC50: 2.4 nM
[6]
  IC50: 121 nM
[2]
  IC50: 0.03 nM
[3]
  IC50: 419 nM
[4]
  IC50: > 10000 nM
[5]
  IC50: 1990 nM
[7]
  IC50: 12.3 nM
[8]
  IC50: 18.1 nM
[9]
  Kd: 9.2 nM
[10]
  Kd: 380 nM
[11]
  Kd: 6 nM
CCRF-CEM
  GI50: 42 nM
  TGI: 146 nM
K562
  GI50: 94 nM
  TGI: 208 nM
MOLT-4 [12]
  GI50: 74 nM
  TGI: 175 nM
SR
  GI50: 66 nM
  TGI: 246 nM
NCI-H460 [13]
  GI50: 103 nM
  TGI: 263 nM
NCI-H226
  GI50: 198 nM
  TGI: 883 nM
MCF7
  GI50: 86 nM
  TGI: 182 nM
MDA-MB-231
  GI50: 103 nM
  TGI: 237 nM
MDA-MB-468
  GI50: 70 nM
  TGI: 155 nM
Hs-578T
  GI50: 105 nM
  TGI: 282 nM
PC-3
  GI50: 89 nM
  TGI: 204 nM
DU-145
  GI50: 134 nM
  TGI: 424 nM
HCT-116
  GI50: 88 nM
  TGI: 204 nM
M14
  GI50: 83 nM
  TGI: 251 nM
SK-MEL-28
  GI50: 63 nM
  TGI: 136 nM
SF-268
  GI50: 83 nM
  TGI: 778 nM
MOLT-4 [14]
  inhibition: Active
NCI-H460 [15]
  inhibition: Active
[16]
  Activity: Non-Toxic
[17]
  Activity: Non-Toxic
[18]
  Activity: Non-Toxic
[19]
  Activity: Non-Toxic
[20]
  Activity: Non-Toxic
[21]
  Activity: Non-Toxic
[22]
  IC50: 112 nM
[23]
  IC50: 12.2 nM

## N#Cc1cnc2ccc(NC(=O)C3CSSC3)cc2c1Nc1ccc(OCc2cccc(F)c2)c(Cl)c1
[2]
  IC50: 284 nM

## N#Cc1cnc2cc(OC[C@H](O)CO)c(NC(=O)CC3CSSC3)cc2c1Nc1ccc(OCc2cccc(F)c2)c(Cl)c1
[1]
  IC50: 2 nM
[6]
  IC50: 104 nM
[2]
  IC50: 0.19 nM
[3]
  IC50: 387 nM
[5]
  IC50: 1280 nM
CCRF-CEM
  GI50: 112 nM
  TGI: 283 nM
K562
  GI50: 148 nM
  TGI: 454 nM
MOLT-4 [12]
  GI50: 93 nM
  TGI: 209 nM
SR
  GI50: 132 nM
  TGI: 608 nM
NCI-H460 [13]
  GI50: 128 nM
  TGI: 312 nM
NCI-H226
  GI50: 690 nM
  TGI: 1830 nM
MCF7
  GI50: 91 nM
  TGI: 193 nM
MDA-MB-231
  GI50: 208 nM
  TGI: 722 nM
MDA-MB-468
  GI50: 120 nM
  TGI: 385 nM
Hs-578T
  GI50: 512 nM
  TGI: 1740 nM
PC-3
  GI50: 174 nM
  TGI: 455 nM
DU-145
  GI50: 637 nM
  TGI: 1360 nM
HCT-116
  GI50: 98 nM
  TGI: 209 nM
M14
  GI50: 141 nM
  TGI: 482 nM
SK-MEL-28
  GI50: 129 nM
  TGI: 350 nM
SF-268
  GI50: 404 nM
  TGI: 1320 nM
